Test results as given in ChEMBL document CHEMBL1201862, “PubChem BioAssay data set” (2004).
Active and inactive are the calls of the source.

Experiments:
[1] = CellTiter-Glo luminescence survival assay, SW480 colon tumor line, concentration-response curve, half-maximal inhibitory concentration (AID 1117338); assay type: functional
[2] = RKO cell viability reduction, dose response, CellTiter-Glo luminescence (AID 1117322); assay type: functional
[3] = cytotoxicity toward HCT116 cells – cell-based, CellTiter-Glo luminescence, IC50, dose response (AID 1117332); assay type: functional; conditions: HCT-116
[4] = SNU-C1 cell viability reduction, dose response, CellTiter-Glo luminescence (AID 1117323); assay type: functional, cell-based
[5] = cytotoxicity toward Colo320 cells – cell-based, CellTiter-Glo luminescence, IC50, dose response (AID 1117334); assay type: functional; conditions: COLO 320
[6] = cytotoxicity toward HT-29 cells – cell-based, CellTiter-Glo luminescence, IC50, dose response (AID 1117330); assay type: functional
[7] = Reduced DLD-1 viability, concentration-response, CellTiter-Glo luminescence (AID 1117352); assay type: functional
[8] = HCT116 cell viability decrease, GSK3B pretreatment – CellTiter-Glo, IC50, dose response (AID 1117339); assay type: functional; conditions: HCT-116
[9] = Luminescence Cell-Based Dose Response HTS to Identify Activators of Luciferase Translation or Activity in H4 […] Cells. [Related pubchem assays: 1829 (Project Summary), 1814 (Primary HTS)]; assay type: functional
[10] = target: T1, Oxysterols receptor LXR-beta (Homo sapiens, UniProt P55055); assay type: functional, cell-based;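 further: Cell-based luminescence dose-response assay of agonist activity at LXR, run as a confirmatory counterscreen to a daf-12 agonist screen; HEK293 cells with Gal4-LXR fusion and GAL4-driven luciferase reporter; agonist potency from rising luciferase signal of a Gal4-LXR reporter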
T1 sequence (P55055 whole entry): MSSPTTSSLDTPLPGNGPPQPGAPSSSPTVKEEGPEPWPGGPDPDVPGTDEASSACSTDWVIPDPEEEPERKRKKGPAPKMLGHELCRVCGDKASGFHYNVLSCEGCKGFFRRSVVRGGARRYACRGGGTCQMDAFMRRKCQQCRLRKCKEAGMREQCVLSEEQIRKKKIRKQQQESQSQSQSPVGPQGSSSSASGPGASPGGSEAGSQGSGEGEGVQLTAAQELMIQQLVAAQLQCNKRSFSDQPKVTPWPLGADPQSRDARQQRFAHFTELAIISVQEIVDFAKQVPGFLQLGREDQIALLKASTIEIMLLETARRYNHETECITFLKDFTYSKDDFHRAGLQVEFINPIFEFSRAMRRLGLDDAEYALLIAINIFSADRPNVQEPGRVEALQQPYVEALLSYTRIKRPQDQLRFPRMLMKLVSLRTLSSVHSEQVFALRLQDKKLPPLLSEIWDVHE

[11] = cells
[12] = target: Glucose-6-phosphate 1-dehydrogenase (Homo sapiens, UniProt P11413); test: inhibition of Homo sapiens G6PD, dose series – biochemical, fluorescence, selectivity assay for P. falciparum G6PD inhibitor project, dose response (AID 504792); assay type: functional
[13] = viability loss in THP-1 monocytes – THP-1 cells, cytotoxicity control for Vif-APOBEC3G degradation inhibitor project, dose response (AID 1117359); assay type: functional; conditions: THP-1
[14] = reduction of Shn3 3'UTR-driven luciferase in osteoblasts – cell-based, Clone20 osteoblasts, firefly luciferase, cherry-picked, dose response (AID 624132); assay type: functional;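 further: firefly luciferase luminescence from reporter carrying the Shn3 3'UTR in osteoblasts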
[15] = non-specific 3'UTR reporter inhibition in Clone20-Shn3RL – cell-based, Renilla luciferase, cherry-picked, counter-screen for Shn3 inhibitor project, dose response (AID 624133); assay type: functional
[16] = Shn3 3'UTR reporter signal decrease – cell-based, Clone20 osteoblasts, firefly luciferase, cherry-pick, set 2, Schnurri-3 inhibitor project, dose response (AID 720490); assay type: functional;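 further: actives lower the luminescence signal as inhibitors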
[17] = tested on: HEK293; test: EBV LMP1 TES2 canonical NF-kB signalling blockers – cell-based, HEK293, luciferase, cherry-pick, dose response (AID 588343); assay type: functional; conditions: Homo sapiens
[18] = loss of viability in HepG2 cells – cell-based, CellTiter-Glo, cherry-picked, cytotoxicity control for Shn3 inhibitor project, dose response (AID 624134); assay type: functional
[19] = Trypanosoma cruzi growth suppression in host cells – NIH3T3 host cells, beta-gal luminescence, confirmation (AID 2044); assay type: functional, cell-based;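 further: intracellular parasites grown in NIH/3T3 mouse fibroblasts as host cells; luminescent beta-galactosidase reporter signal from transgenic T. cruzi replicating inside host cells; inhibitors lower the luminescence signal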
[20] = NIH3T3 cell viability loss – ATP luminescence, mouse fibroblasts, counter-screen, dose response (AID 2010); assay type: functional, cell-based;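 further: cells exposed to compound for about 90 hours before reading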
[21] = cells; remark: listed apart in the source
[22] = Late stage assay provider results from the probe development effort to identify selective inhibitors of heat shock protein 90 (HSP90): Absorbance-based cell proliferation assay in SKBR3 cells.; assay type: functional; conditions: SK-BR-3
[23] = Late stage assay provider results from the probe development effort to identify selective inhibitors of heat shock protein 90 (HSP90): Absorbance-based cell proliferation assay in MCF7 cells.; assay type: functional
[24] = target: Glutathione-S-transferase (Schistosoma japonicum, UniProt Q26513); test: GST-antibody interaction or FRET quenching – biochemical, TR-FRET, artefact control for Vif-APOBEC3G degradation inhibitor project, dose response (AID 1117362); assay type: functional
[25] = target: Paired box protein Pax-8 (Homo sapiens, UniProt Q06710); test: PAX8 transcriptional activity inhibition in RMG-I – RMG-I cells, luciferase, cherry-pick, dose response (AID 687027); assay type: functional, cell-based;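 further: luciferase reporter driven by Pax8 target thyroperoxidase promoter measured by SteadyGlo luminescence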
[26] = toxicity toward immortalized ovarian surface epithelium – cell-based, plate reader, dry powder samples, cytotoxicity control for PAX8 inhibitor project, dose response (AID 743045); assay type: functional
[27] = A2780 cell killing – plate reader, dry powder samples, cytotoxicity control, dose response (AID 743046); assay type: functional, cell-based
[28] = OVCAR-3 cell viability loss – plate reader, dry powder samples, PAX8 inhibitor project, dose response (AID 743044); assay type: functional, cell-based
[29] = IGROV1 cell killing – plate reader, dry powder samples, PAX8 inhibitor project, dose response (AID 743043); assay type: functional, cell-based; conditions: IGROV-1
[30] = OVCAR8 cell viability loss – plate reader, dry powder samples, PAX8 project, dose response (AID 743197); assay type: functional, cell-based; conditions: OVCAR-8

Sequence of Paired box protein Pax-8 (Q06710 whole entry): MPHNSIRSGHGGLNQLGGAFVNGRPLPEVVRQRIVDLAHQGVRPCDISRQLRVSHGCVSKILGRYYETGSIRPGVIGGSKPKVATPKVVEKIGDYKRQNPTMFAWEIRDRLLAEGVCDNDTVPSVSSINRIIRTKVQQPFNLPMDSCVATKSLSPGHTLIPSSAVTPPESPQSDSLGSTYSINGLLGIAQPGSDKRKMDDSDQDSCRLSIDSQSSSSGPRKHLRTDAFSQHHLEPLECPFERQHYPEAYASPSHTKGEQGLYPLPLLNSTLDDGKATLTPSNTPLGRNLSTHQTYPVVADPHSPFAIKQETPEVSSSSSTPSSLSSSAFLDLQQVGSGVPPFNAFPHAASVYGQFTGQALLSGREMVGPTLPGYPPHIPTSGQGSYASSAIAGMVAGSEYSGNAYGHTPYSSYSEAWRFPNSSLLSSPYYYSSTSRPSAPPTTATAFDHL
Sequence of Glucose-6-phosphate 1-dehydrogenase (P11413 whole entry): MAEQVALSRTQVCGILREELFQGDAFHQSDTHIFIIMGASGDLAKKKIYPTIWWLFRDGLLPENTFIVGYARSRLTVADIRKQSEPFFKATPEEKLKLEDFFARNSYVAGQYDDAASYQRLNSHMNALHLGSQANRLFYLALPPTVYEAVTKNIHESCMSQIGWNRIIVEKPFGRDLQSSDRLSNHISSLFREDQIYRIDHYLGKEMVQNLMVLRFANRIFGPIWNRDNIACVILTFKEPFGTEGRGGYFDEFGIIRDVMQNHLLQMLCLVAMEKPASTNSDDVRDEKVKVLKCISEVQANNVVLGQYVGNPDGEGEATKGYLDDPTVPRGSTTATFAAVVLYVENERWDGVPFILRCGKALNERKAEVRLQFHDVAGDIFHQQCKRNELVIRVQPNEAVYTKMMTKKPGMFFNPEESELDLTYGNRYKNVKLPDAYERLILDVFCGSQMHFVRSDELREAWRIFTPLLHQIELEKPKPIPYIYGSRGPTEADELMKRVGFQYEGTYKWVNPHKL
Sequence of Glutathione-S-transferase (Q26513 whole entry): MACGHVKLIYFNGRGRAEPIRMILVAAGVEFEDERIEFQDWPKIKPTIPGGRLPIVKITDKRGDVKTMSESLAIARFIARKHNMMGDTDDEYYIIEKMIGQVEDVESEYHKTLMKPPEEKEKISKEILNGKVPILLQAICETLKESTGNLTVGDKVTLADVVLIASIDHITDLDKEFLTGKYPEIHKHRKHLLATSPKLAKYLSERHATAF

Question: For `CC(=O)N(CC(O)CN(C(C)=O)c1c(I)c(C(=O)NCC(O)CO)c(I)c(C(=O)NCC(O)CO)c1I)c1c(I)c(C(=O)NCC(O)CO)c(I)c(C(=O)NCC(O)CO)c1I` (stereo not given) [IODIXANOL], which IC50 [1] is on record?
Answer: > 20 µM (inactive)

Question: And the IC50 [2]?
Answer: > 20 µM (inactive)

Question: And the IC50 [3]?
Answer: > 20 µM (inactive)

Question: What about the IC50 [4] of the same compound?
Answer: > 20 µM (inactive)

Question: What about the IC50 [5] of the same compound?
Answer: > 20 µM (inactive)

Question: What about the IC50 [6] of the same compound?
Answer: > 20 µM (inactive)

Question: And the IC50 [7]?
Answer: > 20 µM (inactive)

Question: And the IC50 [8]?
Answer: > 20 µM (inactive)

Question: Which EC50 [9] does the source give for `Cc1occc1C(=O)N=Nc1c(O)n(C)c2ccccc12` here?
Answer: 0.526 µM (active)

Question: And the EC50 [10]?
Answer: > 67.5 µM (inactive)

Question: What about the EC50 [11] of the same compound?
Answer: > 67.5 µM (inactive)

Question: For `COc1cccc(C=Nc2cc(C(C)C)c(O)cc2C)c1O`, which IC50 [12] is on record?
Answer: 33.9 µM (inactive)

Question: And the CC50 [13]?
Answer: 27.2 µM (active)

Question: For `CCOC(=O)C1CCCN(S(=O)(=O)c2ccc(S(=O)(=O)N3CCCC3)cc2)C1` (stereo not given), which AC50 [14] is on record?
Answer: 0.821 µM (active)

Question: What about the AC50 [15] of the same compound?
Answer: 2.94 µM (active)

Question: What about the AC50 [16] of the same compound?
Answer: 2.1 µM (active)

Question: Which results are given for `CCc1ccccc1NC(=O)COC(=O)c1c(C)nsc1NC`?
Answer: AC50 [17]: 133 µM (active); AC50 [14]: 2.48 µM (active); AC50 [18]: 64.7 µM (active); AC50 [15]: 9.08 µM (active); AC50 [16]: 2.76 µM (active)

Question: With `Cc1ccc2c(CN3CCN(CCO)CC3)cc(=O)oc2c1C` as the compound, how does the EC50 [19] read?
Answer: < 0.1 µM (active)

Question: What about the EC50 [20] of the same compound?
Answer: > 60 µM (not active)

Question: And the EC50 [21]?
Answer: 0.019 µM (active)

Question: For `CCCCCCCCOc1ccc(NC(=O)c2coc(=O)c(Br)c2)cc1`, which IC50 [22] is on record?
Answer: 13.5 µM (inactive)

Question: And the IC50 [23]?
Answer: 12.9 µM (inactive)

Question: With `Cn1nccc1NC(=O)Nc1ccc(Cl)cc1` as the compound, how does the IC50 [24] read?
Answer: 93.4 µM (active)

Question: Which IC50 [22] does the source give for `O=C(NCc1cccnc1)c1coc(=O)c(Br)c1` here?
Answer: 12.8 µM (inactive)

Question: And the IC50 [23]?
Answer: 3.5 µM (active)

Question: With `COc1ccc(-c2ccc3c(c2)[C@H]2[C@H](CCN2S(=O)(=O)c2ccc(OC)cc2)[C@H](CO)N3C)cc1` as the compound, how does the AC50 [25] read?
Answer: 7.21 µM (active)

Question: And the AC50 [26]?
Answer: 6.56 µM (active)

Question: What about the AC50 [27] of the same compound?
Answer: 1.52 µM (active)

Question: What about the AC50 [28] of the same compound?
Answer: 3.15 µM (active)

Question: What about the AC50 [29] of the same compound?
Answer: 5.8 µM (active)

Question: What about the AC50 [30] of the same compound?
Answer: 7.31 µM (active)
